Literature values as cited in US20090114566A1, “METHOD OF UPGRADING HEAVY HYDROCARBON STREAMS TO JET PRODUCTS” (Chevron U.S.A. Inc., priority 2007, published 2009).

test system: rats; details: rat, in vivo, po

Going from `O=C(O)CC(S)C(=O)O` (stereo not drawn) [mercapto-succinic acid] to `O=C(O)CCC(=O)O` [succinic acid], the LD50 falls from 800 mg/kg to 500 mg/kg (1.6-fold).

First: O=CC(=O)O [glyoxylic, glyoxylic acid]
Second: O=C(O)/C=C/C(=O)O [fumaric acid]
The LD50 of the first is 3.6-fold lower: 3000 mg/kg for the first, 10700 mg/kg for the second.

Going from `CCOCC(=O)O` [ethoxy-acetic acid] to `COCC(=O)O` [methoxy-acetic acid], the LD50 rises from 1292 mg/kg to 3200 mg/kg (2.5-fold).

same assay, conditions: single oral dose to rats

Compared with `O=C(O)[C@H](O)[C@@H](O)[C@H](O)[C@H](O)CO` [gluconic acid], `O=C(O)CC(O)C(=O)O` (stereo not drawn) [malic acid] is 6.5-fold lower in LD50: 10380 mg/kg for the first, 1600 mg/kg for the second.

For `CC(O)C(=O)O` (stereo not drawn) [lactic acid], the LD50 is listed as 3543 mg/kg.
